{
  "source": "patent US20120251630A1",
  "about": "“REMISSION THERAPY OF CANCER WITH ISOFLAVONOIDS” (MARSHALL EDWARDS, INC., priority 2011, published 2012)",
  "type_in_all_cases": "cell-based, human",
  "key": {"EOC stem cells [1]": {"system": "EOC stem cells", "assay": "Western blot analysis of protein levels (Cox-IV, pS6 kinase, ERK, AMPKα1)", "method": "FIG. 3. Western blot analysis illustrates a decrease in Cox-IV and pS6 kinase, and activation of ERK and AMPKα1 (C).\nFIG. 4. EOC stem cells were treated with compound 1 in the presence or absence of the ROS scavenger, MnTBAP. Western blot analysis (FIG. 2) illustrates the effect of MnTBAP pretreatment on mitochondrial ERK, pS6 and β-actin activation. […] Compound 1-induced ROS production leads to ERK activation and loss of mitochondrial membrane potential (MMP).\nFIG. 8. Western blot analysis illustrates that treatment of ovarian cancer stem cells with compound 1 in the presence of FBS was able to prevent compound 1 induced decrease in pS6 kinase.\n(§1) A panel of CD44+/MYD88+ epithelial ovarian cancer (EOC) stem cells was treated with compound 1 (10 μg/mL) at designated times. CD44+/MYD88+ ovarian cancer stem cells are isolated from either tumor tissue or ascites obtained from patients diagnosed with stage III/IV serous ovarian carcinoma. Mitochondrial function was assessed using the JC1 dye (Biovision Inc), MitoSox dye (Invitrogen), and ApoSENSOR ADP/ATP kit (Biovision Inc.). Protein levels were determined using Western blot analysis. […] The impact of compound 1 on energy production was examined by measuring ADP and ATP levels. […] The stem cells were treated with increasing with compound 1 (10 μg/mL) at times points shown.\n(§2) Inhibitory studies were done using the specific MEK inhibitor U0126 (10 μM) or the ROS scavenger, MnTBAP (500 μM). EOC stem cells were treated with compound 1 in the presence or absence of the ROS scavenger, MnTBAP (Alexis Biochemicals). […] (FIG. 4) EOC stem cells were treated with compound 1 in the presence or absence of the MEK inhibitor, U0126 (Sigma Aldrich). EOC stem cells were pre-treated with U0126 (10 μM) for 1 hour before treatment with compound 1. Flow cytometry analysis using JC1 green fluorescence illustrates the effect of compound 1 on mitochondrial membrane potential. Pretreatment with U0126 reduced the percentage of cells that lost mitochondrial membrane potential (59% vs 23% for compound 1 along and compound 1 with U0126, respectively) (FIG. 5). The mitochondrial fractions of cells treated with compound 1 in the presence or absence of U0126 were analyzed. […] (FIG. 6)\n(§3) EOC stem cells were treated with compound 1 in the presence of 10% fetal bovine serum (FBS)."}, "[2]": {"system": "CD44+/MYD88+ epithelial ovarian cancer (EOC) stem cells", "assay": "Flow cytometry with MitoSox dye, mitochondrial superoxide", "conditions": "10 μg/mL, designated times", "method": "FIG. 1. EOC stem cells were treated with 10 μg/ml compound 1 at designated times. Flow cytometry analysis (FIG. 1) illustrates the increased levels of mitochondrial superoxide using MitoSox dye.\nas §1"}, "ovarian cancer stem cell": {"system": "ovarian cancer stem cell", "assay": "Mitochondrial function assessment (JC1 dye, MitoSox dye, ApoSENSOR ADP/ATP kit)", "conditions": "overall conclusion of Example 1", "method": "as §1"}, "[3]": {"system": "CD44+/MYD88+ epithelial ovarian cancer (EOC) stem cells", "assay": "ApoSENSOR ADP/ATP ratio assay kit, ATP and ADP levels", "method": "FIG. 2 illustrates the levels of ATP and ADP measured at designated times using Apo-SENSOR ADP/ATP ratio assay kit. […] (p<0.0001 compared to control)\nFIG. 7. Compound 1-induced loss of ATP leads to mTor inhibition. EOC stem cells were treated with compound 1 in the presence of 10% FBS. FIG. 7 illustrates the levels of ATP and ADP measured at designated times using ApoS-SENSOR ADP/ATP ratio assay kit. # p<0.001 compared to compound 1 alone.\nas §1, §3"}, "EOC stem cells [4]": {"system": "EOC stem cells", "assay": "Western blot analysis of mitochondrial fractions, Bax", "method": "FIG. 6. Western blot analysis using mitochondrial fractions illustrates the effect on mitochondrial Bax. U0126 inhibited compound 1-induced loss of mitochondrial membrane potential and mitochondrial translocation of Bax (member of the proapoptotic Bcl2 family).\nas §2"}, "EOC stem cells [5]": {"system": "EOC stem cells", "assay": "Flow cytometry with JC1 dye, mitochondrial membrane potential", "method": "FIG. 5. EOC stem cells were treated with compound 1 in the presence or absence of the MEK inhibitor, U0126. Flow cytometry analysis using JC1 dye illustrates the effect on mitochondrial membrane potential (MMP). FIG. 5 illustrates that inhibition of ERK with U0126 is able to reverse the effect of compound 1 on MMP.\nas §1\nInhibitory studies were done using the specific MEK inhibitor U0126 (10 μM) or the ROS scavenger, MnTBAP (500 μM). […] Flow cytometry analysis using JC1 green fluorescence illustrates the effect of compound 1 on mitochondrial membrane potential. […] The mitochondrial fractions of cells treated with compound 1 in the presence or absence of U0126 were analyzed. […]"}, "[6]": {"conditions": "in the presence of 10% fetal bovine serum (FBS)"}},
  "data": [
    {"smiles": "COc1ccc(C2c3ccc(O)c(C)c3OCC2c2ccc(O)cc2)cc1", "note": "(stereo not drawn) [compound 1, 3-(4-hydroxyphenyl)-4-(4-methoxyphenyl)-8-methylchroman-7-ol]", "values": [
      {"measurement": "Cox-IV protein level (Western blot)", "setting": "EOC stem cells [1]; 10 μg/mL", "value": "decreases activation"},
      {"measurement": "activation of AMPKα1 (Western blot)", "setting": "EOC stem cells [1]; 10 μg/mL", "value": "increases activation"},
      {"measurement": "activation of ERK (Western blot)", "setting": "EOC stem cells [1]; 10 μg/mL", "value": "increases activation"},
      {"measurement": "activation of pS6 kinase (Western blot)", "setting": "EOC stem cells [1]; 10 μg/mL", "value": "decreases activation"},
      {"measurement": "compound 1-induced decrease in pS6k", "setting": "EOC stem cells [1]; [6]", "value": "prevented compound 1-induced decrease in pS6k"},
      {"measurement": "compound 1-induced activation of mitochondrial ERK", "setting": "EOC stem cells [1]; in the presence of ROS scavenger MnTBAP (500 μM)", "value": "MnTBAP inhibited compound 1-induced activation of mitochondrial ERK"},
      {"measurement": "mitochondrial superoxide (MitoSox fluorescence)", "setting": "[2]", "value": "increase in mitochondrial superoxide"},
      {"measurement": "mitochondrial function", "setting": "ovarian cancer stem cell", "value": "significantly inhibits mitochondrial function"},
      {"measurement": "ADP level", "setting": "[3]; 10 μg/mL, after 2 and 4 hours of treatment", "value": "accumulated ADP"},
      {"measurement": "ATP production", "setting": "[3]; 10 μg/mL, after 2 and 4 hours of treatment, p<0.0001 compared to control", "value": "decrease in ATP production"},
      {"measurement": "ATP loss", "setting": "[3]; [6]", "value": "Abrogation of ATP loss"},
      {"measurement": "mitochondrial Bax (proapoptotic Bcl2 family member)", "setting": "EOC stem cells [4]; compound 1 alone, mitochondrial fractions", "value": "upregulates"},
      {"measurement": "compound 1-induced upregulation of mitochondrial Bax", "setting": "EOC stem cells [4]; pre-treatment with U0126 followed by compound 1", "value": "prevented compound 1-induced upregulation"},
      {"measurement": "percentage of cells that lost mitochondrial membrane potential", "setting": "EOC stem cells [5]; compound 1 alone", "value": 59, "unit": "%"},
      {"measurement": "percentage of cells that lost mitochondrial membrane potential", "setting": "EOC stem cells [5]; pre-treated with MEK inhibitor U0126 (10 μM) for 1 hour before compound 1", "value": 23, "unit": "%"}
    ]}
  ]
}
